Test results from patent US7560439B2, “Method for increasing the gene expression of transfected genes” (Sigma-Tau Industrie Farmaceutiche Riunite S.p.A., priority 2000, dated 2009).
“And” between values parts separate entries of the source, which are not always exact repeats. Identical values can stand only once.

Columns and labels:
[1] = test system: transfected intracellular plasmidic DNA (pRL-CMV) in HeLa cells; experiment: Slot blot quantification of transfected intracellular plasmidic DNA; assay type: cell-based
Protocol: To verify if the positive effect of ALC on luciferase activity was related to an activation of transcriptional machinery or to an increasing of cell permeability, we decided to quantify the total amount of transfected intracellular plasmidic DNA by Slot blot analysis.
Cell culture. Cervical carcinoma cell line HeLa (ATCC) were maintained in RPMI medium (Europio) supplemented with 10% foetal calf serum, 1% P/S in a humidified atmosphere with 5% CO2 ALC treatment 5×10^6 cells were plated in a 125-cm^3 flask and maintained in RPMI, supplemented as described above, containing ALC at two concentrations (5 mM and 10 mM) 4 days before transfection. The treatment was repeated at the end of transfection. Untreated cells were cultured in the same condition and used as control.
Transient Expression of pRL-CMV. 10^5 cells/well were plated 1 day before transfection in 12 multiwells plate (Corning). DOTAP liposome (Boehringer-Mannheim, Indianapolis, Ind.) and pRL-CMV plasmid (Promega cat. N° E2261) were used for transfection, 6 wells/sample. Briefly, 1.5 μg/well of DNA and a water solution of liposome at 9.2 μM were mixed at room temperature (25 μl/sample) to form DNA-liposome complex. After incubation for 30 min, the same volume/well of HBS 2× (20 mM HEPES, 150 mM NaCl, pH 7.4) was added and the transfection mixture was aliquotated (50 μl/well in supplemented medium). The cells were incubated with the complex for 5 h and the complex removed by washing with PBS (phosphate-buffered saline, pH 7.4, Ca^++ and Mg^++ free). Cells were maintained in supplemented medium, containing ALC, for 24h and then used for analysis. Nude DNA in HBS 1× (pRL-CMV) was transfected as control.
DNA extraction. Total cellular DNA was extracted by alkaline lysis from transfected cells according to the method reported by Maniatis. After washing with PBS, cells were collected with PBS (1 ml/well) and centrifuged at 1500×g for 10 min at r.t.
According to protocol, each pellet, placed on ice, was lysed using: 100 μl of solution I [50 mM glucose, 25 mM Tris-HCl (pH=8), 10 mM EDTA (pH=8)], 200 μl of solution II [0.2 N NaOH, 1% SDS], 150 μl of solution III (5M potassium acetate, glacial acetic acid]. After centrifugation at 12000×g for 5 min at 4° C., surnatant was collected and DNA was precipitated with EtOH. Pellet was resuspended in TE 1× (50 μl/sample).
Probe labelling. The probe, the luciferase gene, was obtained by digestion of pRL-CMV with HindIII for 2 h at 37° C. and then with BamHI in the same condition. After digestion, the mixture was electrophoresed on 0.8% agarose gel in TAE 1× buffer (40 mM Tris-HCl (pH 7.8), 1.1 mM EDTA and 37 mM sodium acetate) and the fragment corresponding to luciferase gene was isolated by excision. The labelling of luciferase gene was performed using the Rediprime II DNA labelling system (Amersham Pharmacia biotech, cat n. RPN 1633) and Redivue stabilised [α-^32P]dCTP (Amersham Pharmacia biotech, cat n. AA 0005) according to purchased protocol.
Slot Blot. DNA samples were absorbed on positively charged Nylon membrane (Boehringer, cat. n. 1209299) using Biorad Slot Blot apparatus. The DNA was linked to the filter by U.V. Stratalinker-2400 (Stratagene). After pre-incubation of the filter with QuikHyb Hybridization Solution (Stratagene, cat. n. 201220) for 20 min at 68° C., 2.5×10^6 cpm/ml of labelled probe was added, after boiling, with salmon sperm DNA, for 2 min. The hybridization was performed at 68° C. for 1 h, and then the filter was washed twice with buffer I (SSC 2×, SDS 0.1%) for 15 min at room temperature and then with buffer II (SSC 0.1×, SDS 0.1%) for 30 min at 60° C. The filter was exposed to “Phosphor Imager” box and then analysed by densitometry using a IPlab Gel software.

[2] = test system: luciferase expression from transfected pRL-CMV plasmid in HeLa cells; experiment: Luciferase assay in HeLa cells transiently transfected with pRL-CMV plasmid; assay type: cell-based; conditions: for RLU/mg mean: HeLa 100000/12-well plates, 1.5 μg/well
Protocol: Cell cultures. The uterine cervical carcinoma cell line HeLa, ATCC was used. The cells were cultured in RPMI 1640 Medium (eurobio), containing antibiotics and 10% foetal calf serum.
Treatment with acetyl-L-carnitine (ALC). 4×10^6 and 5×10^6 cells cultured in a medium containing ALC at final concentrations of 5 mM and 10 mM, respectively, were seeded in two 125 cm^3 flasks, whereas 2×10^6 cells not treated with ALC were plated in a 75 cm^3 flask. The treatment was repeated after 48 h (coinciding with the seeding of the cells for transfection) and after 72 h (at the end of transfection) and was also repeated after 120 h only in the case of samples transfected for lysis at 72 h.
Transient transfection of pRL-CMV plasmid. The cells were seeded for transfection 24 h before in 12-well plates (Corning), in amounts corresponding to 10^5 cells per well. The transfection was carried out in triplicate for each sample using the liposome DOTAP (Boehringer-Mannheim, Indianapolis, Ind.) and the plasmid pRL-CMV (Promega cat. N° E2261). In brief, 1.5 μg/well of DNA and 9.2 μM/well of liposome were used per sample, considering a final volume of 1050 μl/sample; the transfection mixture (25 μl /sample) was left at ambient temperature for 30 min and then HBS 2× (20 mM HEPES, 150 mM NaCl, pH 7.4) was added in amounts of 25 μl/ sample, and 50 μl/sample of the solution thus obtained was added to the cells for 5 hours. After carrying out three washings with PBS (phosphate buffer pH 7.4) without calcium and magnesium, the cells were cultured in growth medium containing ALC at the concentrations indicated in the treatments up to the time of cell lysis for the luciferase assay. As a control, naked DNA was added in a 1× HBS solution.
The cells were washed with PBS (phosphate buffer pH 7.4) without calcium and magnesium and subjected to lysis by means of the addition of 200 μl of lysis buffer contained in the GeneLux L002-100 kit (Wallac) used for the luciferase assay. After 20 min, total proteins were collected and 10 μl of each sample were assayed for luciferase, following the procedures indicated in the kit; the assay was carried out in 96-multiwell plates using the Victor^2 luminometer (Wallac). The luminescence readings obtained, expressed in relative light units (RLU), were normalised for mg of total proteins, calculated using the Bradford Method.

[3] = Dotap/DNA complex + ALC 5 mM, slots 19-24
[4] = Dotap/DNA complex + ALC 10 mM, slots 31-36
[5] = nude DNA + ALC 5 mM, slots 13-18

CC(=O)O[C@H](CC(=O)[O-])C[N+](C)(C)C [ALC, acetyl L-carnitine]
Slot blot densitometry vs untreated ([1]; 10 mM ALC): little decrease | Slot blot densitometry, transfected cells in presence vs absence of ALC ([1]; 24 h after transfection): no difference | densitometric volume, mean [1, 3]: 240634.5 relative units | densitometric volume, single values [1, 3]: 222013 relative units and 255756 relative units and 253422 relative units and 234654 relative units and 239053 relative units and 238909 relative units | densitometric volume, mean [1, 4]: 165345 relative units | densitometric volume, single values [1, 4]: 173870 relative units and 225644 relative units and 116848 relative units and 114911 relative units and 157762 relative units and 203035 relative units | densitometric volume, mean ([1]; Nude DNA + ALC 10 mM, slots 25-30): 52595.2 relative units | densitometric volume, mean [1, 5]: 61441.5 relative units | densitometric volume, single values [1, 5]: 59846 relative units and 58324 relative units and 61431 relative units and 70373 relative units and 63045 relative units and 55630 relative units | RLU/mg mean ([2]; 5 mM ALC + ETS (no Dotap)): 17,025 RLU/mg | RLU/mg mean ([2]; 5 mM ALC + LUC (no Dotap)): 18,060 RLU/mg | RLU/mg mean ([2]; 5 mM ALC + dota + LUC): 779,340 RLU/mg | RLU/mg mean ([2]; 5 mM ALC + dotap + ETS): 22,411 RLU/mg | increase of mean RLU per mg of total proteins as compared to untreated samples ([2]; 5 mM ALC, lysates at 24 h): approximately 1.6 fold | RLU/mg mean ([2]; 10 mM ALC + ETS (no Dotap)): 17,724 RLU/mg | RLU/mg mean ([2]; 10 mM ALC + LUC (no Dotap)): 20,481 RLU/mg | RLU/mg mean ([2]; 10 mM ALC + dotap + ETS): 20,520 RLU/mg | RLU/mg mean ([2]; 10 mM ALC + dotap + LUC): 750,034 RLU/mg | luciferase expression compared with 5 mM ALC ([2]; 10 mM ALC, lysates at 24 h): no additional increase | RLUs per mg of proteins, treated vs untreated samples ([2]; lysates at 48 h after transfection): no significant differences | luciferase expression ([2]; lysates at 72 h): no luciferase expression
